Laboratory results as given in paper PMC11406361, “Several orphan solute carriers functionally identified as organic cation transporters: Substrates specificity compared with known cation transporters” (The Journal of Biological Chemistry, 2024).

Assays:
SLC35G3 = SLC35G3 (Homo sapiens, UniProt Q8N808); assay: Uptake ratio screen, SLC35G3-overexpressing HEK293 over empty vector cells; assay type: cell-based; parameters: by amplifying the entire gene-of-interest within the HEK293 genome via a long-range PCR; details: 2.5 μM substrate, 2 min, HEK293
SLC22A15 = biological target: T1, SLC22A15 (Homo sapiens, UniProt Q8IZD6); assay: Uptake ratio screen, SLC22A15-overexpressing HEK293 over empty vector cells; assay type: cell-based; details: 2.5 μM (nicotine 10 μM), 2 min
T1 construct: by amplifying the entire gene-of-interest within the HEK293 genome via a long-range PCR
Method: (§1) Typically discussed substrates of the proton organic-cation antiporter ([14]) are highlighted in dark green in Figure 1.
(§2) In preparation for transport experiments, 24-well plates were pre-coated with poly-D-lysine (Sigma-Aldrich) and 300,000 cells were plated per well and incubated for 48 h. Firstly, the 24-well plate was placed on a heating plate at 37 °C, and the cells were washed with 37 °C HBSS^+ buffer (Hank’s balanced salt solution supplemented with 10 mM Hepes and adjusted to pH 7.4; Thermo Fisher Scientific). The substance-of-interest, which was diluted in 37 °C HBSS^+ to a desired concentration, was added to the cells for exactly 2 min. […] The uptake was stopped with ice-cold HBSS^+, and the 24-well plate was removed from the heating plate. The cells were washed twice with the cold HBSS^+ before they were lysed for 15 min with 80% (v/v) acetonitrile containing the respective internal standard for mass spectrometry. For variations in seeded cell numbers between the cell lines, several wells were lysed in RIPA buffer and used for total protein quantification using a bicinchoninic assay ([74]) and bovine serum albumin as calibration.
(§3) The intracellular drug concentrations after transport experiments were analyzed by high-performance liquid chromatography coupled to tandem mass spectrometry analysis. The HPLC consisted of a Shimadzu Nexera HPLC System with a SIL-30AC autosampler, a LC-30AD pump, a CTO-20AC column oven, and a CBM-20A controller (Shimadzu). The reverse-phase chromatography of compounds was accomplished with a Brownlee SPP RP-Amide column with 4.6 × 100 mm inner dimensions, a particle size of 2.7 μm, and a preceding Phenomenex C-18 guard column. The mobile phase was composed of an organic additive with acetonitrile:methanol 6:1 (v/v) in total concentrations between 3% and 50% (v/v) and 0.1% (v/v) formic acid in the aqueous component of the eluent. During separation, the column oven was held at 40 °C and the mobile phase was maintained at a flow rate of 300 or 400 μl/min. After separation, the detection of substances was performed with an API 4000 tandem mass spectrometer (AB SCIEX, https://sciex.com/support/software-support/software-downloads), followed by quantification of results with the Analyst software (AB SCIEX, version 1.6.2). The composition of chromatographic conditions, as well as detailed mass spectrometric detection parameters, are listed in Table S5.
(§4) Transport-mediated net uptake was determined as fold-increase of transporter-overexpressing cells over empty vector–transfected control cells.

SLC35E2A [1] = biological target: T2, SLC35E2A (Homo sapiens, UniProt P0CK97); details: ratio of Vmax over KM
SLC19A2 = biological target: T3, SLC19A2 (Homo sapiens, UniProt O60779); assay: Uptake ratio screen, SLC19A2-overexpressing HEK293 over empty vector cells; assay type: cell-based; details: 2.5 μM, 2 min
T3 construct: expressed in transfected cells
T3 sequence (O60779 1-497): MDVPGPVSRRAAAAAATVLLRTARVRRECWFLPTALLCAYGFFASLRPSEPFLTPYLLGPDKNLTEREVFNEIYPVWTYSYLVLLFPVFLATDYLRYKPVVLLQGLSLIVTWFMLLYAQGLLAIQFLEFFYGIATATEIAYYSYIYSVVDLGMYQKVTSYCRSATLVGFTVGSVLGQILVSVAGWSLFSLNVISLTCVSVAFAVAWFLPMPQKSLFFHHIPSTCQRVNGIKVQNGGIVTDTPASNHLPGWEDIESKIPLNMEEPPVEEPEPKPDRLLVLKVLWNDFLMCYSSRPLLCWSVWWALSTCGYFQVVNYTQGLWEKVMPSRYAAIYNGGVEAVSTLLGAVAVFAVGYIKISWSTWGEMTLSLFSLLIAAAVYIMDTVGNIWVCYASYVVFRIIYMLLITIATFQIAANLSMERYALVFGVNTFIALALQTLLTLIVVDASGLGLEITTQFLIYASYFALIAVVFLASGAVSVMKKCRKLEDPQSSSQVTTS
Method: as §1, §2
(§5) The intracellular drug concentrations after transport experiments were analyzed by high-performance liquid chromatography coupled to tandem mass spectrometry analysis. The HPLC consisted of a Shimadzu Nexera HPLC System with a SIL-30AC autosampler, a LC-30AD pump, a CTO-20AC column oven, and a CBM-20A controller (Shimadzu). The reverse-phase chromatography of compounds was accomplished with a Brownlee SPP RP-Amide column with 4.6 × 100 mm inner dimensions, a particle size of 2.7 μm, and a preceding Phenomenex C-18 guard column. […] After separation, the detection of substances was performed with an API 4000 tandem mass spectrometer (AB SCIEX, https://sciex.com/support/software-support/software-downloads), followed by quantification of results with the Analyst software (AB SCIEX, version 1.6.2). […]
as §4

SLC35E2A [2] = biological target: T2, SLC35E2A; assay: Uptake ratio screen, SLC35E2A-overexpressing HEK293 over empty vector cells; assay type: cell-based; parameters: by amplifying the entire gene-of-interest within the HEK293 genome via a long-range PCR; details: 2.5 μM, 2 min
Method: as §1, §2, §5, §4

SLC35F4 = biological target: T4, SLC35F4 (Homo sapiens, UniProt A4IF30); assay: Uptake ratio screen, SLC35F4-overexpressing HEK293 over empty vector cells; assay type: cell-based; parameters: by amplifying the entire gene-of-interest within the HEK293 genome via a long-range PCR; details: 2.5 μM, 2 min
T4 sequence (A4IF30 1-521): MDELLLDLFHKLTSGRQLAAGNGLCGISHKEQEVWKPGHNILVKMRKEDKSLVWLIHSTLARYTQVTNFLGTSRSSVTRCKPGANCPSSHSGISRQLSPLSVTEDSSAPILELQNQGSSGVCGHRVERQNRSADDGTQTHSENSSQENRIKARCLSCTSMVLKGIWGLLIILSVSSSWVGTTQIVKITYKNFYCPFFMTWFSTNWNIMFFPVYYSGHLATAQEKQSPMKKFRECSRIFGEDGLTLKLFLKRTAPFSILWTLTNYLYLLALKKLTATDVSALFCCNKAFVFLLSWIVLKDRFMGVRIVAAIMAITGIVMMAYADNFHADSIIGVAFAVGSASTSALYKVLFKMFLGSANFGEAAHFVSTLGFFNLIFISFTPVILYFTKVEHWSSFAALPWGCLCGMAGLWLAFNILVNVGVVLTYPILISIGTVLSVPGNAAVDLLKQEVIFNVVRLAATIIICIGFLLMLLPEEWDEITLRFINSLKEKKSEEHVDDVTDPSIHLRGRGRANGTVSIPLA
Method: as §1, §2, §3, §4

SLC35F3 = SLC35F3 (Homo sapiens, UniProt Q8IY50); details: 2.5 μM, 2 min, HEK293
Method: as §1, §2, §3, §4

SLC47A1 = biological target: T5, SLC47A1 (Homo sapiens, UniProt Q96FL8); assay: Uptake ratio screen, SLC47A1-overexpressing HEK293 over empty vector cells; assay type: cell-based; details: 2.5 μM, 2 min
T5 sequence (Q96FL8 1-570): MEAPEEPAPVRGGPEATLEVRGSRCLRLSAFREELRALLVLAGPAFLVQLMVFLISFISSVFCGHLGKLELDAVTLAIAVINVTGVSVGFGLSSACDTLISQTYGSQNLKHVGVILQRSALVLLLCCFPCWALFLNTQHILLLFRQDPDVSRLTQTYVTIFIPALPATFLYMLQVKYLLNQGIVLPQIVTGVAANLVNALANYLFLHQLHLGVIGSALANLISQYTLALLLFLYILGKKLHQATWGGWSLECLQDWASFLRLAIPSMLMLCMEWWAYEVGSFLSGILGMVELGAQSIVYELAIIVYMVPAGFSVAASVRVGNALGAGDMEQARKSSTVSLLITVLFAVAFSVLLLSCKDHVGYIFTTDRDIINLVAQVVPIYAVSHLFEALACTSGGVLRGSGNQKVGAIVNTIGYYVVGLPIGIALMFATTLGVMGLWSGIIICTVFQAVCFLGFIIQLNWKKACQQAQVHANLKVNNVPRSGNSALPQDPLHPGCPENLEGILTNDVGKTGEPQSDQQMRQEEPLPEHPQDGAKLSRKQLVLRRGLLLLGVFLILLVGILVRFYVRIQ
Method: as §1, §2, §5, §4

SLC47A2 = SLC47A2 (Homo sapiens, UniProt Q86VL8); assay: Uptake ratio screen, SLC47A2-overexpressing HEK293 over empty vector cells; assay type: cell-based; details: 2.5 μM, 2 min
Method: as §1, §2, §5, §4

OCT1 = OCT1 (Homo sapiens, UniProt O15245); details: 2.5 μM, 2 min, HEK293
Method: as §1, §2, §3, §4

OCT2 = OCT2 (Homo sapiens, UniProt O15244); details: 2.5 μM, 2 min, HEK293
Method: as §1, §2, §3, §4

Sequence of SLC35G3 (Q8N808 whole entry): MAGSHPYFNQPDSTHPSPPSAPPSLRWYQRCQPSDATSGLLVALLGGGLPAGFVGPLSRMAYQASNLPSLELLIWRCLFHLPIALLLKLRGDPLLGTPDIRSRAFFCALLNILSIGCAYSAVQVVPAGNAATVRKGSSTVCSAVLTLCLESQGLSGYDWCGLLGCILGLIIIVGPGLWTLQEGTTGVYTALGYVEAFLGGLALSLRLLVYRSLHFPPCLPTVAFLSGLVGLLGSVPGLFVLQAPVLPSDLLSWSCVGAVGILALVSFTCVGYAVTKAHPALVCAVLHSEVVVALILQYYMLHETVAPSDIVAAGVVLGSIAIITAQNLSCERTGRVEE
T2 sequence (P0CK97 whole entry): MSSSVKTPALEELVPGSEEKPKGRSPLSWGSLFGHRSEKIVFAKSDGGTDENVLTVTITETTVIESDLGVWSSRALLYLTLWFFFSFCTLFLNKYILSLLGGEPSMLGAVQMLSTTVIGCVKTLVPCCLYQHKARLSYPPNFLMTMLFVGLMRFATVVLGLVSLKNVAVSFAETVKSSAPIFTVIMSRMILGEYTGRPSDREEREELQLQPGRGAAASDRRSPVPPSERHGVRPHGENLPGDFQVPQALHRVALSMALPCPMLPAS
Sequence of SLC35F3 (Q8IY50 whole entry): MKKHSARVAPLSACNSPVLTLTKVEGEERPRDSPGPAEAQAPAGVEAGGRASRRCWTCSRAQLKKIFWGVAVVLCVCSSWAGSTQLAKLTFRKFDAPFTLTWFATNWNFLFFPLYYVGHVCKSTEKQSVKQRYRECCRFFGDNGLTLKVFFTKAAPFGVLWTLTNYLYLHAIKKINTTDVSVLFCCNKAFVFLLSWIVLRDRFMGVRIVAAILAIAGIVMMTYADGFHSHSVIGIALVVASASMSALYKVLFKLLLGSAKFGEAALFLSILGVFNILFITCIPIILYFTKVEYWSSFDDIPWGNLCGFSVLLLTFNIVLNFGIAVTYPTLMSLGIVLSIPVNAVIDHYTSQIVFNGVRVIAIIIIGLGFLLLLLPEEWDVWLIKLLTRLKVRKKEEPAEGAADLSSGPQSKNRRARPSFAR
Sequence of OCT1 (O15245 whole entry): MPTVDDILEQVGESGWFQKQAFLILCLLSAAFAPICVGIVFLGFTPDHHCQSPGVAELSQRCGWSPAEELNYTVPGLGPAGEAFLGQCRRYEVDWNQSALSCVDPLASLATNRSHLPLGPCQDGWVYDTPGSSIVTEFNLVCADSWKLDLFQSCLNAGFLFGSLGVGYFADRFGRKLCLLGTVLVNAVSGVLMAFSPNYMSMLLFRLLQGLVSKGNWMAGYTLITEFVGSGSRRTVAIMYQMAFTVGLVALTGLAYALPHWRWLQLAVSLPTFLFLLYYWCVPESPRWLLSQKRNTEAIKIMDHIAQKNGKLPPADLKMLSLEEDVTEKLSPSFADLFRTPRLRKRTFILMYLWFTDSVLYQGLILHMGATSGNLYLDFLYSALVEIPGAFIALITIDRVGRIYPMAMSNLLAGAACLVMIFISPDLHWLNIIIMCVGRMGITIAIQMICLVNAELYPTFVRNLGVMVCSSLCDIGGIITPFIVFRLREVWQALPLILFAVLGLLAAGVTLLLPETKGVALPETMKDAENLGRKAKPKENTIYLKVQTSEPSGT
Sequence of SLC47A2 (Q86VL8 1-566 isoform Q86VL8-3): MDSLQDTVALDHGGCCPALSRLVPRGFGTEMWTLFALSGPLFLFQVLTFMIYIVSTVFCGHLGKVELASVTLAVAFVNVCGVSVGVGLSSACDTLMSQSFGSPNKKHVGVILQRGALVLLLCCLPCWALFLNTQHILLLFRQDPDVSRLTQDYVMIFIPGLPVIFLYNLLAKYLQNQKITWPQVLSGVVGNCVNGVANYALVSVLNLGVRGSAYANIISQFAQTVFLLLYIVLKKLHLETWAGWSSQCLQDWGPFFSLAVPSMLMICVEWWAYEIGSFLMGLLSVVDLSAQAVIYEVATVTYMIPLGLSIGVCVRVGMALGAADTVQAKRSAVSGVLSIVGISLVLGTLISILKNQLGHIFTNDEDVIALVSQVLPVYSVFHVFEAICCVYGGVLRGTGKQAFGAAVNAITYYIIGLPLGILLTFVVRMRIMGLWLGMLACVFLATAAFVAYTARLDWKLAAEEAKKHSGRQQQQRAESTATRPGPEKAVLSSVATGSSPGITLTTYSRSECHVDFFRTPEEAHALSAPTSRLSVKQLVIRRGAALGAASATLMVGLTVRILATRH
T1 sequence (Q8IZD6 whole entry): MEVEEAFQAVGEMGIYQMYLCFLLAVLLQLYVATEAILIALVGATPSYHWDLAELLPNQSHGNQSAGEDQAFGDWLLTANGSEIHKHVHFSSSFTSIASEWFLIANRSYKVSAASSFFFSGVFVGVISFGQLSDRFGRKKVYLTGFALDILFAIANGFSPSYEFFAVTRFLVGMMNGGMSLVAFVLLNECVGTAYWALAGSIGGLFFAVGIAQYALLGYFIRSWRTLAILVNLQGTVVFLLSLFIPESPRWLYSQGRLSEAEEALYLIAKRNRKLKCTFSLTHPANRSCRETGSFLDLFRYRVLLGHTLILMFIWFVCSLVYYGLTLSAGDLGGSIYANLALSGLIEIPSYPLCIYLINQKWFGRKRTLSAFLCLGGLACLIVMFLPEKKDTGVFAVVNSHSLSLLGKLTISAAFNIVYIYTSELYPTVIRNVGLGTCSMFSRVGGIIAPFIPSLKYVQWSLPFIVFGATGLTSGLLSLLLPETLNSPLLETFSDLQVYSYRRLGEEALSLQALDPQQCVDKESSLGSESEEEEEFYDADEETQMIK
Sequence of OCT2 (O15244 whole entry): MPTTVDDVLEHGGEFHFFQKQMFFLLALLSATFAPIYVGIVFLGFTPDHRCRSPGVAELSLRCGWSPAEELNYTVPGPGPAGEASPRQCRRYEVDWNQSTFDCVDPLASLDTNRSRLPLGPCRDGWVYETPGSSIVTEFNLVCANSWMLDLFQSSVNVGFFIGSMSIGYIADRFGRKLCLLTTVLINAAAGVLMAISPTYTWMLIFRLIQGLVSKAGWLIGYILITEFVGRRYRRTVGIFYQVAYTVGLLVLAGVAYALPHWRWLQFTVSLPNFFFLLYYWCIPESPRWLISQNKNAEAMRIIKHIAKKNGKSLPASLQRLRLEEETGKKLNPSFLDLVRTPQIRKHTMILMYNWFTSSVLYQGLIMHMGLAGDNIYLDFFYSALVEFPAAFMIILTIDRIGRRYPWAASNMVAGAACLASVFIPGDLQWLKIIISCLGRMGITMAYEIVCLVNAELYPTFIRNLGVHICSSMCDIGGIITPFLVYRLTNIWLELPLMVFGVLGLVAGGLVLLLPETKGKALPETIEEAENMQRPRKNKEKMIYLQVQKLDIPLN

| SMILES | Uptake data for SLC35G3, mean value (fold-increase over empty vector control) (SLC35G3) | Uptake by SLC22A15 (in words) (SLC22A15) | Clint (±SEM) (SLC35E2A [1]) | Uptake by SLC19A2 (in words) (SLC19A2) | Uptake by SLC35E2A (in words) (SLC35E2A [2]) | Uptake by SLC35F4 (in words) (SLC35F4) | Uptake by SLC35F3 (in words) (SLC35F3) | Uptake by SLC47A1 (MATE1) (in words) (SLC47A1) | Uptake by SLC47A2 (MATE2K) (in words) (SLC47A2) | Uptake by OCT1 (in words) (OCT1) | Uptake by OCT2 (in words) (OCT2) |
| --- | --- | --- | --- | --- | --- | --- | --- | --- | --- | --- | --- |
| COc1ccc2c3c1O[C@H]1C(=O)CC[C@@]4(O)[C@@H](C2)N(C)CC[C@]314 [Oxycodone] | 1.86 | significantly increased the uptake | 3.44 (±1.49) μl × mg protein^-1 × min^-1 | enhance cell uptake | relatively high activity | – | – | – | – | – | – |
| Cc1ncc(C[n+]2csc(CCO)c2C)c(N)n1 [Thiamine] | 0.90 | – | – | – | – | no enhanced thiamine transport | no enhanced thiamine uptake | – | – | – | – |
| Nc1nc(=O)n([C@@H]2CS[C@H](CO)O2)cc1F [emtricitabine] | – | – | – | – | – | – | – | only transported by the MATEs | only transported by the MATEs | to some extent | to some extent |
